Assay results reported in patent publication US20260098017A1, “NOVEL AROMATIC RING DERIVATIVE CONTAINING AMIDE SUBSTITUTION AND USE THEREOF” (TIANJIN PHARMACEUTICAL BIOTECHNOLOGY CO., LTD., priority 2022, published 2026).

Assays:
TYK2 JH1 kinase = target: T1, TYK2 JH1 kinase (Homo sapiens, UniProt P29597); assay: TYK2 JH1 enzyme assay in vitro (TR-FRET); assay type: biochemical
T1 sequence (P29597 897-1176 limits assumed): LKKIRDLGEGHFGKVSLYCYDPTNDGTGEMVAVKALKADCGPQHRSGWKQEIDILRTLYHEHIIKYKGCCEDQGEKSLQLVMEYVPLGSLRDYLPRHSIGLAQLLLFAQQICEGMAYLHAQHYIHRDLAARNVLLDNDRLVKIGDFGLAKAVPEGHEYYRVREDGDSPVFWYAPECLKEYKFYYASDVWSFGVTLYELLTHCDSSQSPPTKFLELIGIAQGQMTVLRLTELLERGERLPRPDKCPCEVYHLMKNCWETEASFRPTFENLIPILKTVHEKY

SD rats = assay: Four-week repeat-dose toxicity study in rats; assay type: in vivo; details: rat, 28 days, 2% cream 500 mg bid topical, 100 mg/kg
Procedure: Each group contained 10 animals, with an equal number of males and females.
The treatment lasted for four consecutive weeks (28 days).
• Daily clinical observation and body weight measurement; • After the last administration, rats were fasted for more than 16 h, anesthetized on the next day, and blood was collected from abdominal aorta. Tests such as hematology (EDTA-2K anticoagulation), blood biochemistry (serum), coagulation function (separated plasma with sodium citrate anticoagulation) and the like were respectively carried out; • After euthanization of the animals, the tissue organs were dissected and observed in general, and organ weights and coefficients (heart, liver, spleen, kidney, thymus) were determined; • The skin and lung tissues of the administration site were taken for HE staining to observe the changes in epidermal thickness, dermal inflammatory cells and pulmonary lesions.

[1] = system: mouse asthma model induced by OVA; assay: Mouse asthma model induced by OVA: airway hyperresponsiveness (Penh); assay type: in vivo; details: for Enhanced pause (Penh) value: 2 mg/mL, 50 μL endotracheally, once daily for 3 days
Procedure: (§1) The efficacy of the compounds according to the present invention in a mouse asthma model induced by OVA could be assessed using the following method:
(§2) Test sample: the compound of Example 3 was weighed accurately, and dissolved in DMSO to prepare a solution at a concentration of 2 mg/mL.
(§3) 30 female BALB/c mice were adaptively fed. After one week, 10 mice were randomly taken out and fed as a blank control group, and 20 mice were selected to establish the asthma model. The model mice were intraperitoneally injected with 0.2 mL of sensitizing solution for sensitization respectively on 0, 7 and 14 days. The sensitization solution contained 50 μg of OVA and 2 mg of Al(OH)3. The blank control group received an equivalent volume of physiological saline.
(§4) From day 21 to day 23 after sensitization, the mice in the model group and the administration group were subjected to nebulization stimulation with 5% OVA for 30 min, and the mice in the blank control group received nebulization with physiological saline for the same duration.
(§5) 30 min before daily stimulation of the mice, 50 μl of physiological saline was administered endotracheally to mice in the blank control and model groups, and 50 μl of the corresponding drug was administered endotracheally to mice in the Example 3 compound group, once daily for 3 consecutive days.
Airway hyperresponsiveness was measured in each group of mice after the last stimulation. The mice were placed in a whole-body plethysmograph. After recording the baseline values of enhanced pause (Penh), the mice were stimulated by nebulized methacholine, wherein the concentrations of the methacholine were 0, 6.25 and 12.5 mg/mL from low to high, the nebulization volume was 100 μL per dose for 60 s.
(§6) Statistical analysis was conducted using SPSS software, Measurement data were expressed as mean±standard deviation. One Way ANOVA was used for inter-group comparisons, LSD test was used for those with homogeneous variance, and Dunnett-t test was used for those with heterogeneous variance. Differences were statistically significant with P<0.05.

[2] = system: mouse asthma model induced by OVA; assay: Mouse asthma model induced by OVA: inflammatory cells in bronchoalveolar lavage fluid; assay type: in vivo
Procedure: as §1, §2, §3, §4, §5
After the airway hyperresponsiveness measurement, the mice were euthanized by cervical dislocation and fixed on a dissecting tray. The abdomens and thoracic cavities of the mice were opened, and the neck skin and excess tissues were excised to expose the mouse trachea. A small incision was made on the transverse axis of the trachea with small scissors, a pre-prepared 1 mL syringe needle was inserted therein, and the needle was fixed with surgical thread. 0.5 mL of pre-cooled phosphate-buffer solution (PBS) was aspirated with a 1 ml syringe and slowly injected into the lungs of the mice, followed by slow withdrawal. Each mouse was lavaged once, and a total of about 0.4 mL of lavage fluid was collected. The number of inflammatory cells in the bronchoalveolar lavage fluid was measured by a cell counter.
as §6

[3] = target: Ba/F3 cell line expressing TYK2 (Homo sapiens, UniProt P29597, cells depend on it, form not given); assay: In vitro cellular inhibition assay (Ba/F3 cell proliferation, CellTiter-Glo); assay type: cell-based; details: read-out: IC50 (the source's name)
How it was run: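 Ba/F3 cells dependent on TYK2 were exposed to serially diluted compound, then viability was read by CellTiter-Glo luminescence. Inhibition (%) was calculated from RLU relative to max and min controls, and IC50 was obtained by curve fitting.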

JAK3 JH1 kinase = JAK3 JH1 kinase (Homo sapiens, UniProt P52333); assay: JAK3 JH1 enzyme assay in vitro (TR-FRET); assay type: biochemical; details: TR-FRET; read-out: JAK 3 JH1 IC50
Chain of JAK3 JH1 kinase (P52333 822-1111 limits assumed): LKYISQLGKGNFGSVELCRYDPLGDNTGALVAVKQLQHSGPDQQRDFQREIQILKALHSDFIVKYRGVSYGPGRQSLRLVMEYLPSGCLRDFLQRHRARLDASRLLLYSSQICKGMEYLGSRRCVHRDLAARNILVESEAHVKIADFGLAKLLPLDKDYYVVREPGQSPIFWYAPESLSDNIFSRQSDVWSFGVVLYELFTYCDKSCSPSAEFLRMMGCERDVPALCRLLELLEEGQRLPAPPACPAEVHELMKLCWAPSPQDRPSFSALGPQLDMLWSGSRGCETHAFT

JAK1 JH1 kinase = JAK1 JH1 kinase (Homo sapiens, UniProt P23458); assay: JAK1 JH1 enzyme assay in vitro (TR-FRET); assay type: biochemical; details: read-out: JAK 1 JH1 IC50
Chain of JAK1 JH1 kinase (P23458 875-1153 limits assumed): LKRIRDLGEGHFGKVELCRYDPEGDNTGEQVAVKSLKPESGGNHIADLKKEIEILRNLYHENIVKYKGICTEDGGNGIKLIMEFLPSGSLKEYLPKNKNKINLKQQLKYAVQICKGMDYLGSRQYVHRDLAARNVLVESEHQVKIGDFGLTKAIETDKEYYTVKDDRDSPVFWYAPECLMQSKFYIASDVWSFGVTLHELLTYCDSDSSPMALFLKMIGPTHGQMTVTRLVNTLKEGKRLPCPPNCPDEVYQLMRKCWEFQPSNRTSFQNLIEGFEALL

[4] = 2 mg/mL, 50 μL endotracheally, once daily for 3 days

In the case of [2H]C([2H])([2H])NC(=O)c1nnc(NC(=O)C2CC2)cc1Nc1cccc(C(=O)Nc2cccc(C)c2)c1OC [Example 3], the IC50 (TYK2 JH1 kinase) is reported as greater than 10 µM, the “Effects on general state, body weight, organ coefficient, skin and pulmonary pathology, and other hematological, coagulation and blood biochemical indicators” value (SD rats) is reported as “no significant effects” and the “Hematology Gran” value (SD rats) is reported as 1.7 ± 1.0 ×10^9/L. For the same compound, the “Hematology Lymph” value (SD rats) was 6.4 ± 2.7 ×10^9/L, the “Hematology Mono” value (SD rats) was 0.2 ± 0.1 ×10^9/L and the “Hematology PLT” value (SD rats) was 1001.8 ± 408.1 ×10^9/L. For the same compound, the “Effect on enhanced pause (Penh) values compared to the model group” value ([1]; administration before stimulation, P<0.05) was “significantly reduce”, the “Enhanced pause (Penh) value” ([1]; methacholine 0 mg/mL) was 0.86 ± 0.31 and the “Enhanced pause (Penh) value” ([1]; methacholine 6.25 mg/mL) was 1.79 ± 0.45. The “Enhanced pause (Penh) value” ([1]; methacholine 12.5 mg/mL) was 2.94 ± 0.66, the “Number of inflammatory cells: Leukocyte” value [2, 4] was 1,241.7 ± 618.1 ×10^3 and the “Number of inflammatory cells: Lymphocyte” value [2, 4] was 791.7 ± 524.9 ×10^3. The “Number of inflammatory cells: Monocyte” value [2, 4] was 58.3 ± 37.0 ×10^3, the “Number of inflammatory cells: Neutrophil” value [2, 4] was 391.7 ± 206.3 ×10^3 and the “Effect on number of inflammatory cells (white blood cells, lymphocytes) compared with the model group” value ([2]; pre-administration before stimulation) was “significantly reduce the number of inflammatory cells”. The GI50 [3] was 0.001 to 0.005 µM, the IC50 (JAK3 JH1 kinase) was greater than 10 µM and the IC50 (JAK1 JH1 kinase) was greater than 10 µM.
